We go through one compound from patent publication US9296778B2, “3′,5′-cyclic phosphate prodrugs for HCV infection” (Idenix Pharmaceuticals, Inc., priority 2012, dated 2016).

For one data set, the system named is HCV genotype 1b replicon. Description: HCV Replicon Assay. Format: cell-based. Conditions: Hepatitis C virus, 72 h, Zluc cells (Huh-7-derived, HCV genotype 1b replicon, luciferase reporter), 72 hours; read-out: HCV Replicon EC50. Summed up:
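Zluc Huh-7 cells with HCV genotype 1b replicon and luciferase reporter treated with 5-fold dilutions (100 μM to 0.0000512 μM final) in duplicate, or at 1 and 10 μM. Luminescence read with ONE-glo; EC50 from dose-response fits, or % inhibition at the fixed concentrations.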

The nature of data set [1]: Stability in simulated gastric fluid. It counts as in vitro ADME. Conditions: 100 μM, 2 hours at 37° C., percent of the peak area at time zero. On the procedure:
Simulated gastric and intestinal fluids containing pepsin and pancreatin respectively were prepared according to the U.S. Pharmacopoeia USP291 procedure (www.pharmacopeia.cn/v29240/usp29nf24s0_ris1s126.html). Compounds (final concentration 100 μM) were incubated in duplicate in the appropriate fluid for 2 hours at 37° C. The samples were quenched with 200 μl cold acetonitrile, vortexed for 30 seconds and then centrifuged at 16,100 g for 10 min. The supernatants were analyzed by HPLC on a C-18 column with UV detection at 252 nm. The time 0 samples were prepared by adding SGF or SIF fluid to the quenching solvent followed by the test compound. Stability of the compounds was determined by peak area of the test compounds after incubation and calculated as percent of the peak area observed at time zero.

The nature of data set [2]: Stability in fresh human whole blood. Format: in vitro ADME. Conditions: 0.5 μM, percent unchanged test compound. Summed up: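 Test compound at 0.5 μM was incubated at 37 °C in fresh human K2EDTA whole blood, stored at 2–8 °C and used within 7 days, in triplicate. Samples taken at 0, 0.5, 1 and 2 h were quenched in cold acetonitrile containing internal standard and analysed by LC-MS/MS. Percent unchanged compound was derived from peak-area ratios.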

The next data set deals with fresh human hepatocytes. The data set is described as follows: Release of active metabolite in fresh human hepatocytes. Format: in vitro ADME. Conditions: 10 μM compound. In a few lines:
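Overnight-acclimatized hepatocytes (0.8 million cells/well human, 0.5 million mouse) incubated at 37 °C with 10 μM test compound (0.1% DMSO). Sampled at 6, 24, 48 h (human) or 1, 4, 8, 12, 24 h (mouse); cells washed, extracted in cold 70% methanol, intracellular content quantified by LC-MS/MS with internal standard.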

The nature of data set [3]: Liver pharmacokinetics following a single oral dose in CD-1 mice. It counts as in vivo. Conditions: single oral dose 25 mg/kg in PEG 200, CD-1 male mice; given at 1 μmol/kg. Summed up:
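Male CD-1 mice given 25 mg/kg test compound orally in PEG 200; liver snap-frozen in situ at 4, 12 and 24 h (3 per time). Liver 2′-MeGTP measured after TCA homogenization and anion-exchange SPE by LC-MS/MS, calibration 50–50000 pmol/g liver.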

A short description of another data set: in vitro. Conditions: human, HCV Replicon CC50, Zluc cells, CellTiter-Blue. (A replicon is a self-replicating genome or part of one, used to study replication in cells.)

The term pEC50 denotes the negative decadic logarithm of the EC50, by convention in mol/L. As usually defined, the CC50 is the concentration giving 50% cytotoxicity. Read a high CC50 as lower toxicity to the cells.

SMILES strings stand for the structures. pEC50: −log10 of the molar value. Where only a bound is given, the exact number is not on record here.

As to `CCOc1nc(N)nc2c1ncn2[C@@H]1O[C@@H]2COP(=O)(OCCCC(=O)OC(C)C)O[C@H]2[C@@]1(C)F` (single isomer, unassigned) [Compound 20 Diastereomer 1], the pEC50 with HCV genotype 1b replicon was greater than 6.60. The “Stability SGF” value in data set [1] was 98%. The “Stability WB_Human (37° C.; 2 hr)” value in data set [2] is recorded as 98%. In the data set on fresh human hepatocytes (fresh human hepatocytes), the “FHH TP Cmax” value turned out to be 88 pmol/mill cells. In addition, the “FHH TP AUC” value in the data set on fresh human hepatocytes (fresh human hepatocytes, 6, 24 and 48 hours) came out at 2393 pmol · hr/mill cells. Besides, the “Ms Liver 2′-MeGTP AUC” value in data set [3] came out at 410 pmol · hr/g at 1 μmol/kg. Further, in the data set “in vitro”, the CC50 was greater than 50 µM.
